Values quoted from earlier work in patent US20210330725A1, “GARCINIA MANGOSTANA EXTRACT FOR PROMOTING HAIR GROWTH” (PIERRE FABRE DERMO-COSMETIQUE, priority 2018, published 2021).

Test system: hair follicles
Conditions: mice

C[C@@H]1CCN(C(=O)CC#N)C[C@@H]1N(C)c1ncnc2[nH]ccc12 [Tofacitinib, tofacitinib]
effect on hair cycle of topical treatment in telogen phase: rapid re-entry at the beginning of anagen phase
